# Test system: AP-1 induced transcriptional activity
# Assay: Cellular Transrepressional Assay (AP-1 luciferase reporter, PMA-activated A549 cells)
# Type: cell-based
# Details: Homo sapiens, A549, 7 h, maximum inhibition, Cellular Transrepression Assay; read-out: AP-1 Max % inh (Cellular Transrepression Assay)
# Summary of the method: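 A549 cells stably carrying a 7× AP-1–luciferase reporter were stimulated with 10 ng/ml PMA with or without compound (0.1 nM–40 μM) for 7 h. Luminescence read 10 min after luciferase reagent; EC50 fitted from % decrease versus PMA-only signal.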
row,Structure (SMILES),Emax [%]
1,Cc1nnc(NC(=O)C2(C3c4ccccc4Oc4nc(-c5ccc(C(=O)N(C)C)cc5)ccc43)CCC2)s1 (stereo not shown) [Example 488],34.5
2,CC(C)(C(=O)Nc1nncs1)C1c2ccccc2Oc2cc(-c3ccc(C(=O)N4CCOCC4)cc3)ncc21 (stereo not shown) [Example 492],28.4

# Same assay, conditions: Homo sapiens, A549, Cellular Transrepression Assay
row,EC50 [nM],Structure (SMILES)
1,42.9,Cc1nnc(NC(=O)C2(C3c4ccccc4Oc4nc(-c5ccc(C(=O)N(C)C)cc5)ccc43)CCC2)s1 (stereo not shown) [Example 488]
2,182,CC(C)(C(=O)Nc1nncs1)C1c2ccccc2Oc2cc(-c3ccc(C(=O)N4CCOCC4)cc3)ncc21 (stereo not shown) [Example 492]

# Target: T1, human full-length glucocorticoid receptor (Homo sapiens, UniProt P04150)
# T1 sequence (P04150 1-777): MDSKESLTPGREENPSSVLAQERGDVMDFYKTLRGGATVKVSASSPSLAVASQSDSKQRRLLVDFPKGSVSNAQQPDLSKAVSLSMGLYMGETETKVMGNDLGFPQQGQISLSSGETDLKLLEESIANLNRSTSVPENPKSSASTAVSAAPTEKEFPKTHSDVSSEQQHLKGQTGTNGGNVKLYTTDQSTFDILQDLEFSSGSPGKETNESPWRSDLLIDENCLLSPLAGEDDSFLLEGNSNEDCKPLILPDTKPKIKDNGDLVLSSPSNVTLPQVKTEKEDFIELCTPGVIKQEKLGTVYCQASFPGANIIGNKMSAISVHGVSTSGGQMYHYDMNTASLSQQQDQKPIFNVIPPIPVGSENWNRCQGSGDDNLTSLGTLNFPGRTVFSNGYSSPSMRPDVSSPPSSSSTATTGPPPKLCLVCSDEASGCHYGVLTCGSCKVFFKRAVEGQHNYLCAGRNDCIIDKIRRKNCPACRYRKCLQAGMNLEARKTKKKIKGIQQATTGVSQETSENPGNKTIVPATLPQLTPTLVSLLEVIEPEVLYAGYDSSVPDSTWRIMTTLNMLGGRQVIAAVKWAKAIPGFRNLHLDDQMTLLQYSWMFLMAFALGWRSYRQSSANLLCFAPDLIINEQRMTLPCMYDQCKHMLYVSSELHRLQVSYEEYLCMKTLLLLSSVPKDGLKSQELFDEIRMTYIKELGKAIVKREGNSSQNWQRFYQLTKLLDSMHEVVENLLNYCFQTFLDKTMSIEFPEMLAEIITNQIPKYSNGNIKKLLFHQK
# Assay: Glucocorticoid Receptor Binding Assay (I), fluorescence polarization, Fluormone GS Red
# Design: purified human recombinant full-length glucocorticoid receptor; purchased Invitrogen Part #2893
# Details: not given
# Experimental: Glucocorticoid Receptor Binding Assay (I)^a
# Briefly, purified human recombinant full-length glucocorticoid receptor (2 nM) was mixed with fluorescently labeled glucocorticoid (1 nM Fluormone GS Red) in the presence or absence of test compound. After two hour incubation at room temperature in the dark, the fluorescence polarization (FP) of the samples was measured. […] Test compounds were analyzed in the concentration range from 8.5E-05 μM to 5 μM.
row,Ki [nM],Structure (SMILES)
1,10.2,CC(C)(C(=O)Nc1nncs1)[C@H]1c2ccccc2Oc2nc(-c3ccc(C(=O)O)cc3)ccc21 [Example 174]
2,2.5,CC(C)(C(=O)Nc1nncs1)[C@H]1c2ccccc2Oc2nc(-c3ccc(C(N)=O)cc3)ccc21 [Example 215]
3,6.28,CNC(=O)c1ccc(-c2ccc3c(n2)Oc2ccccc2[C@@H]3C(C)(C)C(=O)Nc2nncs2)cc1F [Example 253]

# Same assay, conditions: GR Binding Assay (I); read-out: GR (Ki, nM) (GR Binding Assay (I))
row,Ki [nM],Structure (SMILES)
1,45,CC(C(=O)Nc1nncs1)C1c2ccccc2Oc2nc(-c3ccc(C(=O)N(C)C)cc3)ccc21 (mixture of isomers) [Example 482]
2,> 1150,"O=C(c1ccc(-c2ccc3c(n2)Oc2ccccc2C3C2(C(=O)Nc3nncs3)CCC2)cc1)N1CCOCC1 (single isomer, unassigned) [Example 487]"
3,> 1150,CC(C)(C(=O)Nc1nncs1)C1c2cccnc2Oc2c(F)cccc21 (stereo not shown) [Example 72]
4,19.8,CC(C)(C(=O)Nc1nncs1)C1c2ccccc2Oc2cc(-c3ccc(C(=O)O)cn3)ccc21 (stereo not shown) [Example 101]
5,6.06,CC(C)(C(=O)Nc1nncs1)C1c2ccccc2Oc2cc(-c3ccc(C(=O)O)s3)ccc21 (stereo not shown) [Example 103]
6,4.5,CN(C)C(=O)c1ccc(-c2ccc3c(c2)Oc2ccccc2C3C(C)(C)C(=O)Nc2nncs2)s1 (stereo not shown) [Example 104]
7,13.6,CC(C)(C(=O)Nc1nncs1)C1c2ccccc2Oc2cc(-c3ncc(C(=O)O)cn3)ccc21 (stereo not shown) [Example 108]
8,62.6,CC(C)(C(=O)Nc1nncs1)C1c2ccccc2Oc2cc(C(N)=O)ccc21 (stereo not shown) [Example 113]
9,49.9,CC(C)(C(=O)Nc1nncs1)C1c2ccccc2Oc2cc(C(=O)O)ccc21 (stereo not shown) [Example 114]
10,346,CC(C)(C(=O)Nc1nncs1)C1c2ccccc2Oc2cc(C(=O)N3CCOCC3)ccc21 (stereo not shown) [Example 116]
11,123,CNC(=O)c1ccc2c(c1)Oc1ccccc1C2C(C)(C)C(=O)Nc1nncs1 (stereo not shown) [Example 117]
12,76.6,CC(C)(C(=O)Nc1nncs1)C1c2ccccc2Oc2cc(C(=O)NCc3ccccc3)ccc21 (stereo not shown) [Example 118]
13,80,CC(C)(C(=O)Nc1nncs1)C1c2ccccc2Oc2cc(NC(=O)NCc3ccccc3)ccc21 (stereo not shown) [Example 122]
14,17.8,CC(C)(C(=O)Nc1nncs1)C1c2ccccc2Oc2cc(NC(=O)Nc3nccs3)ccc21 (stereo not shown) [Example 123]
15,65.1,CC(C)(C(=O)Nc1nncs1)C1c2ccccc2Oc2cc(NC(=O)NC3CC3)ccc21 (stereo not shown) [Example 124]
16,486,CN(C)C(=O)c1ccc(-c2ccc3c(n2)Oc2ccccc2[C@H]3C(C)(C)C(=O)Nc2nncs2)cc1 [Example 168]
17,7.95,CC(C)(C(=O)Nc1nncs1)[C@H]1c2ccccc2Oc2nc(-c3ccc(C(=O)O)c(F)c3)ccc21 [Example 213]
18,1.37,CC(C)(C(=O)Nc1nncs1)[C@H]1c2ccccc2Oc2nc(-c3ccc(S(C)(=O)=O)cc3)ccc21 [Example 214]
19,4.14,CC(C)(C(=O)Nc1nncs1)[C@H]1c2ccccc2Oc2nc(-c3cc4ccccc4o3)ccc21 [Example 216]
20,1.24,COc1ccc(-c2ccc3c(n2)Oc2ccccc2[C@@H]3C(C)(C)C(=O)Nc2nncs2)cn1 [Example 218]
21,8.06,Cc1cc(-c2ccc3c(n2)Oc2ccccc2[C@@H]3C(C)(C)C(=O)Nc2nncs2)ccc1OC(C)C [Example 224]
22,4.57,CN(C)S(=O)(=O)c1ccc(-c2ccc3c(n2)Oc2ccccc2[C@@H]3C(C)(C)C(=O)Nc2nncs2)cc1 [Example 232]
23,11.3,CC(C)(C(=O)Nc1nncs1)[C@H]1c2ccccc2Oc2nc(-c3ccc(S(=O)(=O)N4CCOCC4)cc3)ccc21 [Example 233]
24,4.85,CC(C)(C(=O)Nc1nncs1)[C@H]1c2ccccc2Oc2nc(-c3ccc(S(=O)(=O)NC4CC4)cc3)ccc21 [Example 235]
25,9.44,CC(C)NS(=O)(=O)c1ccc(-c2ccc3c(n2)Oc2ccccc2[C@@H]3C(C)(C)C(=O)Nc2nncs2)cc1 [Example 236]
26,6.04,Cc1nnc(-c2ccc(-c3ccc4c(n3)Oc3ccccc3[C@@H]4C(C)(C)C(=O)Nc3nncs3)cc2)o1 [Example 237]

row,Ki [nM],Structure (SMILES)
1,412,CC(C)(C(=O)Nc1nncs1)[C@H]1c2ccccc2Oc2nc(-c3ccc(OC4CCOCC4)c(F)c3)ccc21 [Example 242]
2,> 1150,CC(C)(C(=O)Nc1nncs1)[C@H]1c2ccccc2Oc2nc(-c3ccc(OC4CCCCC4)c(F)c3)ccc21 [Example 243]
3,> 1150,CC(C)(C(=O)Nc1nncs1)[C@H]1c2ccccc2Oc2nc(-c3ccc(OC4CCCC4)c(F)c3)ccc21 [Example 244]
4,1.01,CN(C)C(=O)c1ccc(-c2ccc3c(n2)Oc2ccccc2[C@@H]3C(C)(C)C(=O)Nc2nccs2)cc1 [Example 245]
5,16.1,CN(Cc1ccccc1)C(=O)c1ccc(-c2ccc3c(n2)Oc2ccccc2[C@@H]3C(C)(C)C(=O)Nc2nncs2)cc1 [Example 255]
6,180,CN1CCN(C(=O)c2ccc(-c3ccc4c(n3)Oc3ccccc3[C@@H]4C(C)(C)C(=O)Nc3nncs3)cc2)CC1 [Example 256]
7,18.2,CCN(CC)C(=O)c1ccc(-c2ccc3c(n2)Oc2ccccc2[C@@H]3C(C)(C)C(=O)Nc2nncs2)cc1OC [Example 262]
8,126,COc1cc(-c2ccc3c(n2)Oc2ccccc2[C@@H]3C(C)(C)C(=O)Nc2nncs2)ccc1C(=O)N1CCCCC1 [Example 265]
9,9.45,CC1CCN(C(=O)c2ccc(-c3ccc4c(n3)Oc3ccccc3[C@@H]4C(C)(C)C(=O)Nc3nncs3)cc2)CC1 [Example 268]
10,14.7,CC(C)(C(=O)Nc1nncs1)[C@H]1c2ccccc2Oc2nc(-c3ccc(C(=O)N4CCC(O)CC4)cc3)ccc21 [Example 269]
11,218,CC1(C)CCCN(C(=O)c2ccc(-c3ccc4c(n3)Oc3ccccc3[C@@H]4C(C)(C)C(=O)Nc3nncs3)cc2)C1 [Example 271]
12,12.6,COC[C@@H]1CCCN1C(=O)c1ccc(-c2ccc3c(n2)Oc2ccccc2[C@@H]3C(C)(C)C(=O)Nc2nncs2)cc1 [Example 272]
13,30.5,CC(C)(C(=O)Nc1nncs1)[C@H]1c2ccccc2Oc2nc(-c3ccc(C(=O)N4CCC(Cc5ccccc5)CC4)cc3)ccc21 [Example 278]
14,20.8,CC(C)(C(=O)Nc1nncs1)[C@H]1c2ccccc2Oc2nc(-c3ccc(C(=O)N4CCC(CO)CC4)cc3)ccc21 [Example 279]
15,33.5,CC(C)(C(=O)Nc1nncs1)[C@H]1c2ccccc2Oc2nc(-c3ccc(C(=O)N4CCC(c5ccccc5)CC4)cc3)ccc21 [Example 281]
16,13.4,CC(C)(C(=O)Nc1nncs1)[C@H]1c2ccccc2Oc2nc(-c3ccc(C(=O)N4CCC[C@H]4C(N)=O)cc3)ccc21 [Example 282]
17,17.4,CC(C)(C(=O)Nc1nncs1)[C@H]1c2ccccc2Oc2nc(-c3ccc(C(=O)N4CCC[C@@H](O)C4)cc3)ccc21 [Example 284]
18,16.8,CC(C)(C(=O)Nc1nncs1)[C@H]1c2ccccc2Oc2nc(-c3ccc(C(=O)N4CCCC(F)(F)C4)cc3)ccc21 [Example 287]
19,10.8,CCCCN(C)C(=O)c1ccc(-c2ccc3c(n2)Oc2ccccc2[C@@H]3C(C)(C)C(=O)Nc2nncs2)cc1 [Example 292]
20,19.1,CC(C)(C(=O)Nc1nncs1)[C@H]1c2ccccc2Oc2nc(-c3ccc(C(=O)N4CCNC(=O)C4)cc3)ccc21 [Example 296]
21,> 1150,CN1CCCN(C(=O)c2ccc(-c3ccc4c(n3)Oc3ccccc3[C@@H]4C(C)(C)C(=O)Nc3nncs3)cc2)CC1 [Example 297]
22,13.3,CN(CCc1ccccn1)C(=O)c1ccc(-c2ccc3c(n2)Oc2ccccc2[C@@H]3C(C)(C)C(=O)Nc2nncs2)cc1 [Example 299]
23,126,CN(CCOC(C)(C)C)C(=O)c1ccc(-c2ccc3c(n2)Oc2ccccc2[C@@H]3C(C)(C)C(=O)Nc2nncs2)cc1 [Example 302]
24,149,CC(C)(C(=O)Nc1nncs1)[C@H]1c2ccccc2Oc2nc(-c3ccc(C(=O)N(CCO)CCO)cc3)ccc21 [Example 304]
25,313,CN(C)[C@H]1CCN(C(=O)c2ccc(-c3ccc4c(n3)Oc3ccccc3[C@@H]4C(C)(C)C(=O)Nc3nncs3)cc2)C1 [Example 308]

# Source: patent publication US8034940B2, “Modulators of glucocorticoid receptor, AP-1, and/or NF-κB activity and use thereof” (Bristol-Myers Squibb Company, priority 2006, dated 2011)
